Results reported in patent publication US7531671B2, “Dihydroisoindolones as allosteric modulators of glucokinase” (Janssen Pharmaceutica N.V., priority 2005, dated 2009).
Several values for one entry are separate records, joined by “and”; a condition that tells them apart may be missing. Equal entries are not always repeated.

Molecular target: T1, human pancreas Glucokinase (GK) (Homo sapiens, UniProt P35557)
T1 construct: (His)6; made in house; host or cells: Escherichia coli
T1 sequence (P35557 1-465): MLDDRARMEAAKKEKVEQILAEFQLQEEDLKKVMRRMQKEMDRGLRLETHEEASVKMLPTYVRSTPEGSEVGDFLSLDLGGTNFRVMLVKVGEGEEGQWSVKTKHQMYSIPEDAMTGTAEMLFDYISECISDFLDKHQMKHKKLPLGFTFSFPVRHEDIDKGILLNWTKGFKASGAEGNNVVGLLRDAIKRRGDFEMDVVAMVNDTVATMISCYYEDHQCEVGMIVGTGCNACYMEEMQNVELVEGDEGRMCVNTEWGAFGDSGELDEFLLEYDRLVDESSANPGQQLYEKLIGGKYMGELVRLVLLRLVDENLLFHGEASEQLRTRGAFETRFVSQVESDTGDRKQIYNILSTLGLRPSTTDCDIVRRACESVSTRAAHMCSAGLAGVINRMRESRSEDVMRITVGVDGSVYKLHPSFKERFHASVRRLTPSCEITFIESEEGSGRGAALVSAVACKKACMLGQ
Test: Glucokinase enzyme assay, Pancreas GK data
Type: biochemical
Settings: for activation at 50 µM: compound 50 μM, percentage increase in GK activity above vehicle control, 12 mM glucose; for EC50: concentration producing 50% activation above vehicle control; for EC100%: concentration producing 100% activation above vehicle control
Source text: An enzymatic Glucokinase (GK) assay using purified recombinant human liver/pancreas enzyme was used to evaluate the effects of potential small molecule modulators.
In this assay, GK catalyzes glucose phosphorylation in the presence of ATP. The product of this reaction, glucose-6-phosphate, was then oxidized by an excess of glucose-6-phosphate dehydrogenase to produce gluconate-6-phosphate with concomitant reduction of nicotinamide adenine dinucleotide (NAD). […] Human GK (Liver/Pancreas) was expressed in Escherichia coli as a (His) 6-tagged fusion protein and was purified by metal chelate affinity chromatography. The assay was performed in a final incubation volume of 80 μl in a 96-well clear low UV absorption plates. The incubation mixture consisted of 25 mM HEPES, 2 mM MgSO4, 1 mM dithiothreotol (DTT), 1 mg/ml bovine serum albumin (BSA), 1 mM ATP, 1 mM NAD, and 12 mM glucose, 10 units per ml glucose-6-phosphate dehydrogenase, and +/−300 ng per ml GK. For determination of the affinity (Km) and Vmax, different concentrations of glucose ranging from 0.5 mM to 40 mM were used in the assay; see Grimsby, J., Sarabu, R.; Grippo, J. F.; et. al. Science 2003, 301, 370-373. Production of reduced NAD (Nicotinamide Adenine Dinucleotide) was measured as changes in absorption at 340 nm in 96-well plate reader (Envision model # 2101 Multilabel Plate reader). % Activation @ 50 μM was calculated as the percentage increase in GK activity above the vehicle control with the effective concentration of the compound being 50 μM. EC50% (μM) was calculated as the effective concentration of the compound that produces 50% activation above the vehicle control, and EC100% (μM) was calculated as the effective concentration of the compound that produces 100% activation above the vehicle control.

SMILES | activation at 50 µM | EC50 | EC100%
O=C(CSC1c2ccccc2C(=O)N1Cc1ccc(OC(F)(F)F)cc1)Nc1ccccn1 (stereo not shown) [Compound 48, 2-[3-Oxo-2-(4-trifluoromethoxybenzyl)-2,3-dihydro-1H-isoindol-1-ylsulfanyl]-N-pyridin-2-yl-acetamide] | 174% | 1600 nM | 6.9 µM
O=C(CSC1c2ccccc2C(=O)N1Cc1ccc(-n2cccn2)cc1)Nc1ccccn1 (stereo not shown) [Compound 47, 2-[3-Oxo-2-(4-pyrazol-1-yl-benzyl)-2,3-dihydro-1H-isoindol-1-ylsulfanyl]-N-pyridin-2-yl-acetamide] | 106% | 800 nM | 
CCCCN1C(=O)c2ccccc2C1OCC(=O)Nc1nccs1 (stereo not shown) [Compound 53, 2-(2-Butyl-3-oxo-2,3-dihydro-1H-isoindol-1-yloxy)-N-thiazol-2-yl-acetamide] | 101% | 18300 nM | 
COc1ccc(CN2C(=O)c3ccccc3C2SCC(=O)Nc2ccc(C(=O)O)cn2)cc1 (stereo not shown) [Compound 55, 6-{2-[2-(4-Methoxybenzyl)-3-oxo-2,3-dihydro-1H-isoindol-1-ylsulfanyl]-acetylamino}-nicotinic acid] | 246% | 1350 nM | 3.4 µM
O=C(CSC1c2ccccc2C(=O)N1Cc1cccc2ccccc12)Nc1ccccn1 (stereo not shown) [Compound 43, 2-(2-Naphthalen-1-ylmethyl-3-oxo-2,3-dihydro-1H-isoindol-1-ylsulfanyl)-N-pyridin-2-yl-acetamide] | 112% | 4000 nM | 7.1 µM
Cc1[nH]c2ccc(CN3C(=O)c4ccccc4C3SCC(=O)Nc3ccccn3)cc2c1C (stereo not shown) [Compound 45, 2-[2-(2,3-Dimethyl-1H-indol-5-ylmethyl)-3-oxo-2,3-dihydro-1H-isoindol-1-ylsulfanyl]-N-pyridin-2-yl-acetamide] | 132% | 380 nM | 2 µM
COc1ccc(CN2C(=O)c3c(F)ccc(F)c3C2SCC(=O)Nc2ccc(C(=O)O)cn2)cc1OC (stereo not shown) [Compound 57, 6-{2-[2-(3,4-Dimethoxybenzyl)-4,7-difluoro-3-oxo-2,3-dihydro-1H-isoindol-1-ylsulfanyl]-acetylamino}-nicotinic acid] | 258% | 130 nM | 0.4 µM
Cc1ccc2c(c1)C(OCC(=O)Nc1cnccn1)N(Cc1ccccc1)C2=O (stereo not shown) [Compound 58, 2-(2-Benzyl-6-methyl-3-oxo-2,3-dihydro-1H-isoindol-1-yloxy)-N-pyrazin-2-yl-acetamide] | 70% | 27000 nM | 
O=C(CSC1c2ccccc2C(=O)N1Cc1ccc(F)cc1)Nc1ccc(C(=O)O)cn1 (stereo not shown) [Compound 54, 6-{2-[2-(4-Fluorobenzyl)-3-oxo-2,3-dihydro-1H-isoindol-1-ylsulfanyl]-acetylamino}-nicotinic acid] | 358% | 1100 nM | 6.1 µM
O=C(CSC1c2ccccc2C(=O)N1Cc1ccc2sccc2c1)Nc1ccccn1 (stereo not shown) [Compound 44, 2-(2-Benzo[b]thiophen-5-ylmethyl-3-oxo-2,3-dihydro-1H-isoindol-1-ylsulfanyl)-N-pyridin-2-yl-acetamide] | 116% | 890 nM | 5.9 µM
Cc1ccc2c(c1)C(OCC(=O)Nc1ccccn1)N(Cc1ccccc1)C2=O (stereo not shown) [Compound 61, 2-(2-Benzyl-6-methyl-3-oxo-2,3-dihydro-1H-isoindol-1-yloxy)-N-pyridin-2-yl-acetamide] | 8.4% | 26000 nM | 
O=C(CSC1c2ccccc2C(=O)N1Cc1ccc2c(c1)OCCO2)Nc1ccccn1 (stereo not shown) [Compound 38, 2-[2-(2,3-Dihydro-benzo[1,4]dioxin-6-ylmethyl)-3-oxo-2,3-dihydro-1H-isoindol-1-ylsulfanyl]-N-pyridin-2-yl-acetamide] | 201% | 1000 nM | 3.8 µM
COc1ccc(CN2C(=O)c3ccccc3C2SCC(=O)Nc2ccccn2)cc1OC (stereo not shown) [Compound 42, 2-[2-(3,4-Dimethoxybenzyl)-3-oxo-2,3-dihydro-1H-isoindol-1-ylsulfanyl]-N-pyridin-2-yl-acetamide] |  | 540 nM and 780 nM | 1.6 µM and 2.4 µM
CN(C)c1ccc(CN2C(=O)c3cccc(F)c3C2SCC(=O)Nc2ccccn2)cc1 (stereo not shown) [Compound 51, 2-[2-(4-Dimethylaminobenzyl)-7-fluoro-3-oxo-2,3-dihydro-1H-isoindol-1-ylsulfanyl]-N-pyridin-2-yl-acetamide] | 161% | 360 nM | 1.7 µM
COc1ccc(CN2C(=O)c3ccccc3C2SCC(=O)Nc2ccc(C(=O)O)cn2)cc1OC (stereo not shown) [Compound 56, 6-{2-[2-(3,4-Dimethoxybenzyl)-3-oxo-2,3-dihydro-1H-isoindol-1-ylsulfanyl]-acetylamino}-nicotinic acid] | 219% | 850 nM | 2.7 µM
O=C(CSC1c2ccccc2C(=O)N1Cc1ccc(N2CCCC2=O)cc1)Nc1ccccn1 (stereo not shown) [Compound 40, 2-{3-Oxo-2-[4-(2-oxo-pyrrolidin-1-yl)-benzyl]-2,3-dihydro-1H-isoindol-1-ylsulfanyl}-N-pyridin-2-yl-acetamide] | 109% | 2100 nM | 16.1 µM
COc1ccc(CN2C(=O)c3ccccc3C2SCC(=O)Nc2ccccn2)cc1 (stereo not shown) [Compound 49, 2-[2-(4-Methoxybenzyl)-3-oxo-2,3-dihydro-1H-isoindol-1-ylsulfanyl]-N-pyridin-2-yl-acetamide] | 250% | 210 nM | 0.86 µM
O=C(CSC1c2ccccc2C(=O)N1Cc1ccc(-n2cccc2)cc1)Nc1ccccn1 (stereo not shown) [Compound 46, 2-[3-Oxo-2-(4-pyrrol-1-yl-benzyl)-2,3-dihydro-1H-isoindol-1-ylsulfanyl]-N-pyridin-2-yl-acetamide] | 106% | 800 nM | 4.8 µM
O=C(CSC1c2ccccc2C(=O)N1Cc1ccc2c(c1)OCO2)Nc1ccccn1 (stereo not shown) [Compound 41, 2-(2-Benzo[1,3]dioxol-5-ylmethyl-3-oxo-2,3-dihydro-1H-isoindol-1-ylsulfanyl)-N-pyridin-2-yl-acetamide] | 152% | 2800 nM | 10 µM
COC(=O)c1ccc(NC(=O)COC2c3cc(C)ccc3C(=O)N2Cc2ccccc2)nc1 (stereo not shown) [Compound 59] | 127% | 3300 nM | 20.58 µM
COc1ccc(CN2C(=O)c3cccc(F)c3C2SCC(=O)Nc2ccccn2)cc1OC (stereo not shown) [Compound 52, 2-[2-(3,4-Dimethoxybenzyl)-7-fluoro-3-oxo-2,3-dihydro-1H-isoindol-1-ylsulfanyl]-N-pyridin-2-yl-acetamide] |  |  | 0.056 µM and 0.066 µM
Cc1ccc2c(c1)C(OCC(=O)Nc1nccs1)N(Cc1ccccc1)C2=O (stereo not shown) [Compound 60, 2-(2-Benzyl-6-methyl-3-oxo-2,3-dihydro-1H-isoindol-1-yloxy)-N-thiazol-2-yl-acetamide] | 102% | 7600 nM | 
COc1cc(CN2C(=O)c3ccccc3C2SCC(=O)Nc2ccccn2)cc(OC)c1OC (stereo not shown) [Compound 39, 2-[3-Oxo-2-(3,4,5-trimethoxy-benzyl)-2,3-dihydro-1H-isoindol-1-ylsulfanyl]-N-pyridin-2-yl-acetamide] | 193% | 1400 nM | 5.3 µM
